In PubChem BioAssay AID2060889 (Molecular Pharmacology Branch, DTP, NCI, 2025):

System: LG0567-F671-PDC complex spheroids viability
Assay: Anticancer human tumor LG0567-F671-PDC patient-derived lung adenocarcinoma cell line growth inhibition [RAS]
Conditions: for IC50: curve of first compound; for viability, T/C: stronger effect = lower value; active means viability on the fitted dose curve at most 10% of control; inactive means the rest
Outline: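 Agents were tested in combination matrices in half-log decrements from a top concentration at or near clinical Cmax (10 microM if undetermined). Targets were multi-cell spheroids of tumour lines plus HUVEC and MSC stromal cells.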

[1] = second compound 0.000949 µM, first compound 0.000949 µM
[2] = second compound 0.000949 µM, first compound 0.003 µM
[3] = second compound 0.000949 µM, first compound 0.00949 µM
[4] = second compound 0.000949 µM, first compound 0.03 µM
[5] = second compound 0.000949 µM, first compound 0.0949 µM
[6] = second compound 0.000949 µM, first compound 0.3 µM
[7] = second compound 0.003 µM, first compound 0.000949 µM
[8] = second compound 0.003 µM, first compound 0.003 µM
[9] = second compound 0.003 µM, first compound 0.00949 µM
[10] = second compound 0.003 µM, first compound 0.03 µM
[11] = second compound 0.003 µM, first compound 0.0949 µM
[12] = second compound 0.003 µM, first compound 0.3 µM
[13] = second compound 0.00949 µM, first compound 0.000949 µM
[14] = second compound 0.00949 µM, first compound 0.003 µM
[15] = second compound 0.00949 µM, first compound 0.00949 µM
[16] = second compound 0.00949 µM, first compound 0.03 µM
[17] = second compound 0.00949 µM, first compound 0.0949 µM
[18] = second compound 0.00949 µM, first compound 0.3 µM
[19] = second compound 0.03 µM, first compound 0.000949 µM
[20] = second compound 0.03 µM, first compound 0.003 µM
[21] = second compound 0.03 µM, first compound 0.00949 µM
[22] = second compound 0.03 µM, first compound 0.03 µM
[23] = second compound 0.03 µM, first compound 0.0949 µM
[24] = second compound 0.03 µM, first compound 0.3 µM
[25] = second compound 0.0949 µM, first compound 0.000949 µM
[26] = second compound 0.0949 µM, first compound 0.003 µM
[27] = second compound 0.0949 µM, first compound 0.00949 µM
[28] = second compound 0.0949 µM, first compound 0.03 µM
[29] = second compound 0.0949 µM, first compound 0.0949 µM
[30] = second compound 0.0949 µM, first compound 0.3 µM
[31] = second compound 0.3 µM, first compound 0.000949 µM
[32] = second compound 0.3 µM, first compound 0.003 µM
[33] = second compound 0.3 µM, first compound 0.00949 µM
[34] = second compound 0.3 µM, first compound 0.03 µM
[35] = second compound 0.3 µM, first compound 0.0949 µM
[36] = second compound 0.3 µM, first compound 0.3 µM
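Further: spheroids exposed to compound for seven days before readout.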
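Wherever IC50 is given: luminescence signal used as a proxy for viable cells.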

C=CC(=O)N1CCN(c2nc(OCC3CCCN3C)nc3c(F)c(-c4nc(N)cc(C)c4C(F)(F)F)c(Cl)cc23)C(C)C1 (stereo unspecified) + CCn1c(-c2cccnc2C(C)OC)c2c3cc(ccc31)N1CCOC(CC(NC(=O)C(C(C)C)N(C)C(=O)C3(F)CCN(C(=O)C#CC(C)(C)N(C)C)CC3)C(=O)N3CCCC(N3)C(=O)OCC(C)(C)C2)C1
< 3.16 nM: IC50 (second compound 0.000949 µM) | IC50 (second compound 0.003 µM) | IC50 (second compound 0.00949 µM) | IC50 (second compound 0.03 µM) | IC50 (second compound 0.0949 µM) | IC50 (second compound 0.3 µM)
inactive: viability, T/C (second compound 0.000949 µM, first compound 0.00316 µM) 13.9% | viability, T/C (second compound 0.000949 µM, first compound 0.01 µM) 13.6% | viability, T/C (second compound 0.000949 µM, first compound 0.0316 µM) 13.3% | viability, T/C (second compound 0.000949 µM, first compound 0.1 µM) 14.4% | viability, T/C (second compound 0.000949 µM, first compound 0.316 µM) 15.2% | viability, T/C (second compound 0.000949 µM, first compound 1 µM) 15.5% | viability, T/C (second compound 0.003 µM, first compound 0.00316 µM) 12.5% | viability, T/C (second compound 0.003 µM, first compound 0.01 µM) 14.6% | viability, T/C (second compound 0.003 µM, first compound 0.0316 µM) 13.8% | viability, T/C (second compound 0.003 µM, first compound 0.1 µM) 13.8% | viability, T/C (second compound 0.003 µM, first compound 0.316 µM) 19.5% | viability, T/C (second compound 0.003 µM, first compound 1 µM) 15.4% | viability, T/C (second compound 0.00949 µM, first compound 0.00316 µM) 15.2% | viability, T/C (second compound 0.00949 µM, first compound 0.01 µM) 14.1% | viability, T/C (second compound 0.00949 µM, first compound 0.0316 µM) 12.8% | viability, T/C (second compound 0.00949 µM, first compound 0.1 µM) 14.5% | viability, T/C (second compound 0.00949 µM, first compound 0.316 µM) 14.1% | viability, T/C (second compound 0.00949 µM, first compound 1 µM) 14.4% | viability, T/C (second compound 0.03 µM, first compound 0.00316 µM) 13.6% | viability, T/C (second compound 0.03 µM, first compound 0.01 µM) 13.9% | viability, T/C (second compound 0.03 µM, first compound 0.0316 µM) 14.8% | viability, T/C (second compound 0.03 µM, first compound 0.1 µM) 13.3% | viability, T/C (second compound 0.03 µM, first compound 0.316 µM) 13.4% | viability, T/C (second compound 0.03 µM, first compound 1 µM) 15.1% | viability, T/C (second compound 0.0949 µM, first compound 0.00316 µM) 12.6% | viability, T/C (second compound 0.0949 µM, first compound 0.01 µM) 12.8% | viability, T/C (second compound 0.0949 µM, first compound 0.0316 µM) 11.9% | viability, T/C (second compound 0.0949 µM, first compound 0.1 µM) 12.3% | viability, T/C (second compound 0.0949 µM, first compound 0.316 µM) 12.9% | viability, T/C (second compound 0.0949 µM, first compound 1 µM) 12.4% | viability, T/C (second compound 0.3 µM, first compound 0.00316 µM) 9.04% | viability, T/C (second compound 0.3 µM, first compound 0.01 µM) 8.65% | viability, T/C (second compound 0.3 µM, first compound 0.0316 µM) 10.4% | viability, T/C (second compound 0.3 µM, first compound 0.1 µM) 13.6% | viability, T/C (second compound 0.3 µM, first compound 0.316 µM) 12.6% | viability, T/C (second compound 0.3 µM, first compound 1 µM) 11.6%

CC1(C)CCC(Nc2ncc(C(F)(F)F)c(-c3c[nH]c4c(P(C)(C)=O)c(C#N)ccc34)n2)CN1 (stereo unspecified) + CCn1c(-c2cccnc2C(C)OC)c2c3cc(ccc31)N1CCOC(CC(NC(=O)C(C(C)C)N(C)C(=O)C3(F)CCN(C(=O)C#CC(C)(C)N(C)C)CC3)C(=O)N3CCCC(N3)C(=O)OCC(C)(C)C2)C1
inactive: viability, T/C [1] 12.7% | viability, T/C [2] 12.4% | viability, T/C [3] 13.2% | viability, T/C [4] 13.5% | viability, T/C [5] 14.6% | viability, T/C [6] 14.8% | viability, T/C [7] 12.1% | viability, T/C [8] 13.2% | viability, T/C [9] 12.7% | viability, T/C [10] 12.8% | viability, T/C [11] 15.4% | viability, T/C [12] 14.4% | viability, T/C [13] 10.9% | viability, T/C [14] 11.9% | viability, T/C [15] 12.1% | viability, T/C [16] 13.2% | viability, T/C [17] 14% | viability, T/C [18] 15.2% | viability, T/C [19] 10.8% | viability, T/C [20] 12.1% | viability, T/C [21] 12.3% | viability, T/C [22] 12.8% | viability, T/C [23] 13.3% | viability, T/C [24] 13.2% | viability, T/C [25] 10.3% | viability, T/C [26] 9.49% | viability, T/C [27] 11.1% | viability, T/C [28] 10.3% | viability, T/C [29] 11.1% | viability, T/C [30] 10.7%
< 0.949 nM: IC50 (second compound 0.000949 µM) | IC50 (second compound 0.003 µM) | IC50 (second compound 0.00949 µM) | IC50 (second compound 0.03 µM) | IC50 (second compound 0.0949 µM) | IC50 (second compound 0.3 µM)
active: viability, T/C [31] 7.95% | viability, T/C [32] 7.87% | viability, T/C [33] 7.86% | viability, T/C [34] 8.99% | viability, T/C [35] 9.92% | viability, T/C [36] 10.7%

CCc1c2c(nc3ccc(O)cc13)-c1cc3c(c(=O)n1C2)COC(=O)[C@]3(O)CC + CCn1c(-c2cccnc2C(C)OC)c2c3cc(ccc31)N1CCOC(CC(NC(=O)C(C(C)C)N(C)C(=O)C3(F)CCN(C(=O)C#CC(C)(C)N(C)C)CC3)C(=O)N3CCCC(N3)C(=O)OCC(C)(C)C2)C1
active: viability, T/C [4] 9.37% | viability, T/C [5] 6.34% | viability, T/C [6] 3.92% | viability, T/C [10] 9.3% | viability, T/C [11] 6.04% | viability, T/C [12] 3.42% | viability, T/C [16] 9.12% | viability, T/C [17] 6.47% | viability, T/C [18] 3.47% | viability, T/C [21] 11.2% | viability, T/C [22] 7.2% | viability, T/C [23] 4.9% | viability, T/C [24] 2.69% | viability, T/C [27] 10.1% | viability, T/C [28] 6.64% | viability, T/C [29] 4.22% | viability, T/C [30] 2.51% | viability, T/C [32] 8.84% | viability, T/C [33] 7.66% | viability, T/C [34] 5.32% | viability, T/C [35] 3.16% | viability, T/C [36] 2.05%
inactive: viability, T/C [1] 13.8% | viability, T/C [2] 13.3% | viability, T/C [3] 11.2% | viability, T/C [7] 15.5% | viability, T/C [8] 13.3% | viability, T/C [9] 11.8% | viability, T/C [13] 13.6% | viability, T/C [14] 14.2% | viability, T/C [15] 11.6% | viability, T/C [19] 12.1% | viability, T/C [20] 11.9% | viability, T/C [25] 12.8% | viability, T/C [26] 9.98% | viability, T/C [31] 10.2%
< 0.949 nM: IC50 (second compound 0.000949 µM) | IC50 (second compound 0.003 µM) | IC50 (second compound 0.00949 µM) | IC50 (second compound 0.03 µM) | IC50 (second compound 0.0949 µM) | IC50 (second compound 0.3 µM)
